The text below walks through data of ChEMBL document CHEMBL3507680, “University of Dundee, Gates Library screen for HepG2 cell viability”.

This data set in a line: Human HepG2 cell viability assay in 384 well format. The class given is toxicity, cell-based. Also on record: dose 125 nL, time 70.5 hour; cytotoxicity at 70.5 h: concentration not given beside the values. Particulars: HepG2 cells, read-out: Inhibition.
Take `CC1(C)Cc2ccccc2-c2nc(NCCCO)[nH]c(=O)c21`: the cytotoxicity at 70.5 h was -3.41%. As to `O=c1[nH]c(NCCO)nc2c1C1(CCCCC1)Cc1ccccc1-2`, the cytotoxicity at 70.5 h was -1.9%. Turning to `c1csc(CN2CCC3(CC2)COCCN3CC2CC2)n1`, the cytotoxicity at 70.5 h was -10.1%. Turning to `CN1CCN(CC2CC2)C(=O)C12CCN(C(=O)c1cnccn1)CC2`, the cytotoxicity at 70.5 h was -3.74%. For the compound `O=C(c1ccco1)N1CCO[C@@H]2CN(c3ncc(F)cn3)CC[C@@H]2C1`, the cytotoxicity at 70.5 h was -5.01%.

In the case of `Cn1nc(COCC2CC2)c2c1CCN(C(=O)c1ccno1)C2`, the cytotoxicity at 70.5 h was -10.9%. As to `CN1CC[C@]2(CN(C(=O)c3ccc[nH]3)C[C@H]2c2ccccc2)C1=O`, the cytotoxicity at 70.5 h is -3.54%. Regarding `O=C(c1ccoc1)N1CC[C@@H]2[C@@H](CC1)OCCN2c1cccnc1`, the cytotoxicity at 70.5 h was -5.9%.

For `CCOCc1nn(CC2CC2)c2c1CN(C(=O)c1ccno1)CC2`, the cytotoxicity at 70.5 h is -7.44%.

Take `CO[C@@H]1CCN(c2ncc(F)cn2)[C@@H]2CN(CC3CC3)C[C@@H]21`: the cytotoxicity at 70.5 h was -11.2%. Next, `CCN1C[C@H]2CCN(C(=O)c3cc[nH]n3)CC[C@H]2S1(=O)=O`: -14.6%.

On to `O=S(=O)(c1ccccc1)N1C[C@@H]2COC[C@]2(COCC2CC2)C1`, for which the cytotoxicity at 70.5 h is 1.08%.

Regarding `c1cc([C@H]2C[C@@H]3CCN(Cc4nccs4)C[C@H]3O2)ncn1`, the cytotoxicity at 70.5 h was -3.39%. With `CCC(C)n1c(SCC(=O)N2CCOCC2)nc2cc(C)[nH]c2c1=O` (centres undefined), the cytotoxicity at 70.5 h is 13.3%. Consider `Cc1cc2nc(SCC(=O)N3CCOCC3)n(CCC(C)C)c(=O)c2[nH]1`, for which the cytotoxicity at 70.5 h was -0.683%. Next, `O=C(O)c1nnn(-c2cccc(C(F)(F)F)c2)c1-c1ccncc1`: 5.64%; `CCc1cccc(-n2nnc(C(=O)O)c2-c2ccncc2)c1`: -13.1%. The value for `O=C(O)c1nnn(-c2ccc(Cl)c(C(F)(F)F)c2)c1-c1ccncc1` was -26.7%; that for `CN1CCc2c(C#N)c(NCCCO)n3cnnc3c2C1` was -20.7%; that for `CN1CCc2c(C#N)c(NCc3ccncc3)n3cnnc3c2C1` was -14.7%. The value for `Cc1cc(NC(=O)CC2(Cn3cnnn3)CCCCC2)nn1C` was -23.2%; that for `Cc1ccc(C)c(NC(=O)Cn2cc(I)cn2)c1` was -13.2%.

For the compound `Cc1ccc(NC(=O)Cn2cc(I)cn2)cc1C`, the cytotoxicity at 70.5 h stood at 20.3%. Next, `COc1cccc2c1ccn2CCC(=O)N1CCC(C(=O)O)CC1`: -5.23%; `CC(C)NC(=O)CC1(Cn2cnnn2)CCCCC1`: -22.1%. The value for `O=C(COc1coc(CN2CCCCC2)cc1=O)c1ccccc1` was -18.6%; that for `COc1ccc(C(=O)COc2coc(CN3CCSCC3)cc2=O)cc1` was -19.9%; that for `O=C(O)C1CCCN(C(=O)CCn2ccc3c(Cl)cccc32)C1` (centres undefined) was -17.2%. Next, `CCCOc1cccc(C(=O)Oc2cc(=O)n3cccc(C)c3n2)c1`: -12.8%.

Consider `Cc1cccn2c(=O)cc(OC(=O)c3ccccc3Cl)nc12`, for which the cytotoxicity at 70.5 h is -10.1%. The value for `COCCNC(=O)Cn1c(-c2cccc(Cl)c2)nc(C)c(CCO)c1=O` was 0.393%; that for `CC/N=c1\nc(NCC)nc2n1C(O)(Nc1cccc(Cl)c1Cl)CS2` (centres undefined) was -1.29%. As for `COCCNC(=O)Cn1c(-c2ccc(F)cc2)nc(C)c(CCO)c1=O`, the cytotoxicity at 70.5 h was -2.18%. In the case of `CCOc1cccc2c1OCC(=O)N(c1ccc(N(C)C)cc1)C2`, the cytotoxicity at 70.5 h was -8.85%. The value for `O=c1[nH]c2c(-c3ccccn3)nsc2c(=O)n1C1CCCCC1` was -5.9%. Next, `O=c1[nH]nc2c(S(=O)(=O)N3CCCC3)cccn12`: -4.02%. Next, `COCCn1ccc2c(cnc3nc(SC)nn32)c1=O`: -4.98%; `c1cc(-c2nnc3sc(CCN4CCCC4)nn23)ccn1`: -9.13%; `O=C(c1cc(Br)ccc1-n1cnnn1)N1CCCC1`: -3.68%.

For `O=C(CCc1ccc2c(c1)CCO2)Nc1nnn[nH]1`, the cytotoxicity at 70.5 h was -6.65%. Next, `CC(O)CNc1c(NCc2ccco2)c(=O)c1=O` (centres undefined): -9.21%; `C[C@H](NC(=O)OC(C)(C)C)c1nnc(S(=O)(=O)Cc2cccc(F)c2)o1`: -6.88%.

Take `O=C(c1cc(Br)ccc1-n1cnnn1)N1CCCCC1`: the cytotoxicity at 70.5 h is 6.11%. Next, `O=C(O)Cn1nc(-c2ccccc2F)ccc1=O`: 2.69%; `NC(=O)Cn1nc(-c2ccccc2F)ccc1=O`: -9.13%. As for `CN1CCC2(CCN(CC3CCOCC3)CC2)C1=O`, the cytotoxicity at 70.5 h is -10.4%. `CS(=O)(=O)N1CCCC12CCN(Cc1nccs1)C2` (centres undefined): the cytotoxicity at 70.5 h is -1.64%. Regarding `O=C(c1ccco1)N1CCO[C@@H]2CN(c3ccccn3)CC[C@@H]2C1`, the cytotoxicity at 70.5 h was -4.86%. Next, `CC(C)CN1CCS(=O)(=O)[C@@H]2CCN(S(=O)(=O)C3CC3)CC[C@@H]21`: -16.5%; `CN1CCC2(CCN(CC3CC3)CC2)C1=O`: -7.27%. `CS(=O)(=O)N1CCCCC12CCCN(Cc1nccs1)C2` (centres undefined): the cytotoxicity at 70.5 h worked out at 11.6%. The value for `CO[C@@H]1CC[C@H]2[C@H]1OCCN2C(=O)c1ccc(C)nc1` was -3.99%; that for `CNC(=O)C1Cn2ccnc2C2(CCN(C(=O)CC3CCCC3)CC2)O1` (centres undefined) was -1.06%. Next, `O=C(c1cnccn1)N1CCCC2(CCN(Cc3ccc(F)cc3)C2)C1` (centres undefined): -4.76%; `CS(=O)(=O)N1CC[C@]2(C[C@H](Oc3ccccn3)CO2)C1`: -7.19%. The value for `CNC(=O)C1Cn2ccnc2C2(CCN(C(=O)c3ccoc3C)CC2)O1` (centres undefined) was -5.12%; that for `Cc1noc([C@H]2C[C@@H]3CCN(CC4CCOCC4)C[C@H]3O2)n1` was -1.09%; that for `Cc1ccoc1C(=O)N1C[C@@H]2COC[C@]2(COCc2cccnc2)C1` was -0.687%.

Take `O=C(c1ccccc1F)N1C[C@@H]2COC[C@]2(COCc2cccnc2)C1`: the cytotoxicity at 70.5 h is -1.45%. Turning to `O=C(Cc1cccs1)N1C[C@@H]2COC[C@]2(COCc2cccnc2)C1`, the cytotoxicity at 70.5 h is -5.53%. Next, `c1csc(CN2CCC3(CCCN3CC3CC3)CC2)n1`: -4.63%; `O=S(=O)(c1cccnc1)N1C[C@@H]2COC[C@]2(CN2CCOCC2)C1`: -4.52%. As to `COc1ccc2c(c1)C1(CCN(Cc3ccccn3)CC1)N(C)CC2`, the cytotoxicity at 70.5 h came out at 0.00866%. Next, `Cn1cccc1CN1CCC2(CCCN(C(=O)c3cccnc3)C2)CC1`: -2.44%; `O=C1N(c2ccsc2)CCC12CCCN(Cc1cccnc1)C2` (centres undefined): -7.79%; `Cc1ccc(N2CC3(COCCN(Cc4ccccn4)C3)OCC2=O)s1` (centres undefined): -1.36%. The value for `Cc1ccc(N2CC3(COCCN(Cc4ccncc4)C3)OCC2=O)s1` (centres undefined) was 3.84%; that for `COc1ccc(C(=O)CN(C2=NCCCCC2)c2ccccc2)cc1` was -25.8%; that for `O=C(CN(C1=NCCCC1)c1ccccc1)c1ccc(OC(F)F)cc1` was -4.12%.
